From US7998713B2, “Treatment of biomass to obtain ethanol” (E. I. du Pont de Nemours and Company, priority 2005, dated 2011)

Test system: Z. mobilis strain 8b
Assay: Effect of acetamide and acetic acid on Zymomonas growth (toxicity test in shake flasks)
Assay type: cell-based, Zymomonas mobilis
Conditions: pH 6.0, 30° C., 150 rpm, FIG. 1
Excerpt: Fermentation medium was composed of 10 g/L yeast extract, 2 g/L KH2PO4, 70 g/L glucose, 40 g/L xylose and 0.1 M MES buffer.

[1] = medium supplemented with 6 g/L acetamide vs unsupplemented control
[2] = medium supplemented with 7.2 g/L acetic acid vs unsupplemented control

Compound	final density of Z. mobilis [1]	growth rate of Z. mobilis [1]	cell yield (as measured by dry cell mass) [2]	growth rate of Z. mobilis [2]
CC(N)=O [acetamide]	no influence	no influence	–	–
CC(=O)O [acetic acid]	–	–	lower cell yield	reduced growth rate
